# In patent US9708334B2, “Substituted 2,4,5,6-tetrahydropyrrolo[3,4-c]pyrazole and 4,5,6,7-tetrahydro-2H-pyrazolo[4,3-c]pyridine compounds as GlyT1 inhibitors” (DART NEUROSCIENCE (CAYMAN) LTD., priority 2014, dated 2017):
# Molecular target: T1, GlyT1 (Homo sapiens, UniProt P48067)
# T1 construct: expressed in transfected cells
# T1 sequence (P48067 1-706): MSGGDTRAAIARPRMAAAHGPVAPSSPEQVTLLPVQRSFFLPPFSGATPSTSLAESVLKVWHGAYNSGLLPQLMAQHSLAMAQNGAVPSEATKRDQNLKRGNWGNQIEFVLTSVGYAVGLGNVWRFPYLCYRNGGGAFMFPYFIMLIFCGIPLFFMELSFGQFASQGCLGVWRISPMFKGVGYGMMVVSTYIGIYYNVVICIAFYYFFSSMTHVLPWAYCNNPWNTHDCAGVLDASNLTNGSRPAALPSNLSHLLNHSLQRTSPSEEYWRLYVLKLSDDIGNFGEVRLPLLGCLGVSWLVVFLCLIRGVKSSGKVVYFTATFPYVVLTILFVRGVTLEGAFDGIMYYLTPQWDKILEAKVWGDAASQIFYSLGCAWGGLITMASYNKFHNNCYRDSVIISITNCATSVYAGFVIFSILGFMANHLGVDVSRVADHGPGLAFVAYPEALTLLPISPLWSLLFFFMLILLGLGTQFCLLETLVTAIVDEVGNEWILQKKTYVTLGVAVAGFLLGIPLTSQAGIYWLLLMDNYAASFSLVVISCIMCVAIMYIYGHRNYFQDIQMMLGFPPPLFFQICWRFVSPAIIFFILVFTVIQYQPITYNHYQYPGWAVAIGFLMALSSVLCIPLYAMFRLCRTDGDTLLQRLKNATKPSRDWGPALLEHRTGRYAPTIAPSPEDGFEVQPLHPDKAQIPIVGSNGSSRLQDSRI
# Assay: Glycine Transporter 1 (GlyT1) uptake assay, scintillation proximity assay of [14C]-glycine uptake
# Assay type: cell-based
# Conditions: SPA, four parameter logistic fit, read-out: GlyT1 (pIC50) (converted)
# Method in brief: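 [14C]-glycine uptake read by scintillation proximity on a plate counter. IC50 from four-parameter logistic fit of dose-response data.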
row,SMILES,IC50 [nM]
1,"CS(=O)(=O)c1ccc(N2CCC(F)(F)C2)c(C(=O)N2CCc3nn(-c4ccccc4)cc3C2)c1 [Example 496, 3 3-Difluoro-1-(4-methanesulfonyl-2-{2-phenyl-2H 4H 5H 6H 7H-pyrazolo[4,3-c]pyridine-5-carbonyl}phenyl)pyrrolidine]",100 to 1000
2,"COc1c(C#N)ccc(O[C@@H](C)C(F)(F)F)c1C(=O)N1Cc2cn(-c3cccnc3)nc2C1 [Example 246, 2-Methoxy-3-[2-(pyridin-3-yl)-2H 4H 5H 6H-pyrrolo[3,4-c]pyrazole-5-carbonyl]-4-{[(2S)-1 1 1-trifluoropropan-2-yl]oxy}benzonitrile]",< 100
3,"CCS(=O)(=O)c1ccc(O[C@@H](C)C(F)(F)F)c(C(=O)N2Cc3cn(-c4ccc(F)c(C(F)F)c4)nc3C2)c1 [Example 79, 2-[3-(Difluoromethyl)-4-fluorophenyl]-5-[5-(ethanesulfonyl)-2-{[(2S)-1 1 1-trifluoropropan-2-yl]oxy}benzoyl]-2H 4H 5H 6H-pyrrolo[3,4-c]pyrazole]",< 100
4,"CS(=O)(=O)c1ccc(OCC2CC2)c(C(=O)N2Cc3cn(-c4cc(F)ccc4F)nc3C2)c1 [Example 137, 5-[2-(Cyclopropylmethoxy)-5-methanesulfonylbenzoyl]-2-(2 5-difluorophenyl)-2H 4H 5H 6H-pyrrolo[3,4-c]pyrazole]",< 100
5,"Cc1cc(-n2cc3c(n2)CN(C(=O)c2cc(S(C)(=O)=O)ccc2O[C@@H](C)C(F)(F)F)C3)ccn1 [Example 356, 4-[5-(5-Methanesulfonyl-2-{[(2S)-1 1 1-trifluoropropan-2-yl]oxy}benzoyl)-2H 4H 5H 6H-pyrrolo[3,4-c]pyrazol-2-yl]-2-methylpyridine]",< 100
6,CCS(=O)(=O)c1ccc(-c2cccc(F)c2)c(C(=O)N2Cc3cn(-c4ccnc(C)c4)nc3C2)c1 [Example 568],< 100
7,"CCc1cc(-n2cc3c(n2)CN(C(=O)c2cc(S(C)(=O)=O)ccc2N2CCC(F)(F)CC2)C3)ccn1 [Example 131, 4-{5-[2-(4 4-Difluoropiperidin-1-yl)-5-methanesulfonylbenzoyl]-2H 4H 5H 6H-pyrrolo[3,4-c]pyrazol-2-yl}-2-ethylpyridine]",< 100
8,"COc1c(C#N)ccc(OCC(F)F)c1C(=O)N1Cc2cn(-c3cccc(C)n3)nc2C1 [Example 332, 4-(2 2-Difluoroethoxy)-2-methoxy-3-[2-(6-methylpyridin-2-yl)-2H 4H 5H 6H-pyrrolo[3,4-c]pyrazole-5-carbonyl]benzonitrile]",< 100
9,"CC(C)Oc1ccc(S(C)(=O)=O)cc1C(=O)N1Cc2cn(-c3ccc(F)c(C(F)F)c3)nc2C1 [Example 76, 2-[3-(Difluoromethyl)-4-fluorophenyl]-5-[5-methanesulfonyl-2-(propan-2-yloxy)benzoyl]-2H 4H 5H 6H-pyrrolo[3,4-c]pyrazole]",< 100
10,"CC(C)c1cc(-n2cc3c(n2)CN(C(=O)c2cc(C#N)ccc2O[C@@H](C)C(F)(F)F)C3)ccn1 [Example 375, 3-{2-[2-(Propan-2-yl)pyridin-4-yl]-2H 4H 5H 6H-pyrrolo[3,4-c]pyrazole-5-carbonyl}-4-{[(2S)-1 1 1-trifluoropropan-2-yl]oxy}benzonitrile]",< 100
11,"Cn1ncc2c1CCN(C(=O)c1cc(S(C)(=O)=O)ccc1OCC1CC1)C2 [Example 158, 5-[2-(Cyclopropylmethoxy)-5-methanesulfonylbenzoyl]-1-methyl-1H 4H 5H 6H 7H-pyrazolo[4,3-c]pyridine]",> 10000
12,"COc1c(C#N)ccc(OC(C)C)c1C(=O)N1Cc2cn(-c3ccccc3)nc2C1 [Example 323, 2-Methoxy-3-{2-phenyl-2H 4H 5H 6H-pyrrolo[3,4-c]pyrazole-5-carbonyl}-4-(propan-2-yloxy)benzonitrile]",< 100
13,"Cc1cccc(-n2cc3c(n2)CN(C(=O)c2cc(S(C)(=O)=O)ccc2OCC2(C)COC2)C3)c1F [Example 441, 2-(2-Fluoro-3-methylphenyl)-5-{5-methanesulfonyl-2-[(3-methyloxetan-3-yl)methoxy]benzoyl}-2H 4H 5H 6H-pyrrolo[3,4-c]pyrazole]",100 to 1000
14,"N#Cc1ccc(C2CCCC2)c(C(=O)N2CCc3nn(-c4ccccc4)cc3C2)c1 [Example 169, 4-Cyclopentyl-3-{2-phenyl-2H 4H 5H 6H 7H-pyrazolo[4,3-c]pyridine-5-carbonyl}benzonitrile]",100 to 1000
15,"COc1c(C#N)ccc(OC(C)C)c1C(=O)N1Cc2cn(-c3ccc(F)cn3)nc2C1 [Example 324, 3-[2-(5-Fluoropyridin-2-yl)-2H 4H 5H 6H-pyrrolo[3,4-c]pyrazole-5-carbonyl]-2-methoxy-4-(propan-2-yloxy)benzonitrile]",< 100
16,"CC(C)COc1ccc(S(C)(=O)=O)cc1C(=O)N1Cc2cn(-c3cccc(C(F)(F)F)c3F)nc2C1 [Example 52, 2-[2-Fluoro-3-(trifluoromethyl)phenyl]-5-[5-methanesulfonyl-2-(2-methylpropoxy)benzoyl]-2H 4H 5H 6H-pyrrolo[3,4-c]pyrazole]",< 100
17,"N#Cc1ccc(OCC(F)F)c(C(=O)N2Cc3cn(-c4ccc(F)cc4)nc3C2)c1 [Example 527, 4-(2 2-Difluoroethoxy)-3-[2-(4-fluorophenyl)-2H 4H 5H 6H-pyrrolo[3,4-c]pyrazole-5-carbonyl]benzonitrile]",1000 to 10000
18,"CC(C)Oc1ccc(S(C)(=O)=O)cc1C(=O)N1Cc2cn(-c3cccc(F)c3Cl)nc2C1 [Example 149, 2-(2-Chloro-3-fluorophenyl)-5-[5-methanesulfonyl-2-(propan-2-yloxy)benzoyl]-2H 4H 5H 6H-pyrrolo[3,4-c]pyrazole]",< 100
19,"CC(C)COc1ccc(S(C)(=O)=O)cc1C(=O)N1Cc2cn(-c3ccccc3)nc2C1 [Example 51, 5-[5-Methanesulfonyl-2-(2-methylpropoxy)benzoyl]-2-phenyl-2H 4H 5H 6H-pyrrolo[3,4-c]pyrazole]",< 100
20,"Cc1cccc(-n2cc3c(n2)CN(C(=O)c2cc(S(=O)(=O)CC4CC4)ccc2O[C@@H](C)C(F)(F)F)C3)c1 [Example 145, 5-(5-Cyclopropylmethanesulfonyl-2-{[(2S)-1 1 1-trifluoropropan-2-yl]oxy}benzoyl)-2-(3-methylphenyl)-2H 4H 5H 6H-pyrrolo[3,4-c]pyrazole]",1000 to 10000
21,"CC(C)S(=O)(=O)c1ccc(O[C@@H](C)C(F)(F)F)c(C(=O)N2Cc3cn(-c4ccc(F)cc4)nc3C2)c1 [Example 91, 2-(4-Fluorophenyl)-5-[5-(propane-2-sulfonyl)-2-{[(2S)-1 1 1-trifluoropropan-2-yl]oxy}benzoyl]-2H 4H 5H 6H-pyrrolo[3,4-c]pyrazole]",100 to 1000
22,"COc1c(C#N)ccc(OC(C)C(F)(F)F)c1C(=O)N1CCc2nn(-c3ccnc(C)c3)cc2C1 (stereo not drawn) [Example 227, 2-Methoxy-3-[2-(2-methylpyridin-4-yl)-2H 4H 5H 6H 7H-pyrazolo[4,3-c]pyridine-5-carbonyl]-4-[(1 1 1-trifluoropropan-2-yl)oxy]benzonitrile]",< 100
23,"CC(C)Oc1ccc(S(C)(=O)=O)cc1C(=O)N1Cc2cn(-c3ccccc3F)nc2C1 [Example 60, 2-(2-Fluorophenyl)-5-[5-methanesulfonyl-2-(propan-2-yloxy)benzoyl]-2H 4H 5H 6H-pyrrolo[3,4-c]pyrazole]",< 100
24,"Cc1cc(-n2cc3c(n2)CN(C(=O)c2cc(C#N)ccc2-c2cncc(F)c2)C3)ccn1 [Example 556, 4-(5-Fluoropyridin-3-yl)-3-[2-(2-methylpyridin-4-yl)-2H 4H 5H 6H-pyrrolo[3,4-c]pyrazole-5-carbonyl]benzonitrile]",< 100
